# Laboratory results taken from PubChem BioAssay AID330 (DTP/NCI, 2004).
# Where “and” joins values, the source holds several entries; their conditions need not be identical. Identical values can stand only once. Inconclusive results and toxic doses are left out.
# Tested on: P388 leukemia ip, CD2F1 mice, survival T/C
# Test: NCI In Vivo Anticancer Drug Screen. Data for tumor model P388 Leukemia (intraperitoneal) in CD2F1 (CDF1) mice
# Conditions: endpoint: median survival time, higher = longer survival
# How it was run: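 Mice carrying the transplanted tumor received test compound or vehicle. Survival was recorded in each group, and the value is the treated-group measurement divided by that of the vehicle-treated control group.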
# [1] = dose: 50.0 mg/kg/injection, schedule: Q01DX005 (ip), vehicle: saline with Tween-80
# [2] = dose: 100.0 mg/kg/injection, schedule: Q01DX005 (ip), vehicle: saline with Tween-80
# [3] = dose: 200.0 mg/kg/injection, schedule: Q01DX005 (ip), vehicle: saline with Tween-80
# [4] = dose: 60.0 mg/kg/injection, schedule: Q01DX005 (ip), vehicle: saline
# [5] = dose: 120.0 mg/kg/injection, schedule: Q01DX005 (ip), vehicle: saline
# [6] = dose: 100.0 mg/kg/injection, schedule: Q01DX009 (ip), vehicle: saline with Tween-80
# [7] = dose: 50.0 mg/kg/injection, schedule: Q01DX009 (ip), vehicle: saline with Tween-80
# [8] = dose: 240.0 mg/kg/injection, schedule: Q01DX005 (ip), vehicle: saline
# [9] = dose: 60.0 mg/kg/injection, schedule: Q01DX005 (ip), vehicle: Klucel (hydroxypropylcellulose) (HPC)
# [10] = dose: 120.0 mg/kg/injection, schedule: Q01DX005 (ip), vehicle: Klucel (hydroxypropylcellulose) (HPC)
# [11] = dose: 50.0 mg/kg/injection, schedule: Q01DX005 (ip), vehicle: Klucel (hydroxypropylcellulose) (HPC)
# [12] = dose: 100.0 mg/kg/injection, schedule: Q01DX005 (ip), vehicle: Klucel (hydroxypropylcellulose) (HPC)
# [13] = dose: 200.0 mg/kg/injection, schedule: Q01DX005 (ip), vehicle: Klucel (hydroxypropylcellulose) (HPC)
# [14] = dose: 50.0 mg/kg/injection, schedule: Q01DX009 (ip), vehicle: saline
# [15] = dose: 100.0 mg/kg/injection, schedule: Q01DX009 (ip), vehicle: saline
# [16] = dose: 50.0 mg/kg/injection, schedule: Q01DX009 (ip), vehicle: Klucel (hydroxypropylcellulose) (HPC)
# [17] = dose: 100.0 mg/kg/injection, schedule: Q01DX009 (ip), vehicle: Klucel (hydroxypropylcellulose) (HPC)
# [18] = dose: 200.0 mg/kg/injection, schedule: Q01DX009 (ip), vehicle: Klucel (hydroxypropylcellulose) (HPC)
# [19] = dose: 60.0 mg/kg/injection, schedule: Q01DX005 (ip), vehicle: saline with Tween-80
# [20] = dose: 120.0 mg/kg/injection, schedule: Q01DX005 (ip), vehicle: saline with Tween-80
smiles,measurement,setting,value
COC(=O)c1ccc(=O)c2nc3/c(=C/O)c(O)c(C)c(=O)c3[nH]c12,T/C,"dose: 6.25 mg/kg/injection, schedule: Q01DX005 (ip), vehicle: other",117 % of control
same,T/C,"dose: 12.5 mg/kg/injection, schedule: Q01DX005 (ip), vehicle: other",122 % of control
C/C(=N\Nc1cccc2ccccc12)c1ccccn1,T/C,[1],111 % of control
same,T/C,[2],103 % of control
same,T/C,[3],98 % of control
COc1ccc2c(c1OC)OCC(CN(C)C)C2=O (configuration not stated),T/C,"dose: 15.0 mg/kg/injection, schedule: Q01DX005 (ip), vehicle: saline",100 % of control and 102 % of control
same,T/C,"dose: 30.0 mg/kg/injection, schedule: Q01DX005 (ip), vehicle: saline",108 % of control and 111 % of control
same,T/C,[4],106 % of control and 110 % of control and 114 % of control
same,T/C,[5],114 % of control and 116 % of control
CC(=O)c1cccc(NC2C(N)C(NC(=O)N(C)C)(C(C)O)C(C)(O)C2(O)COC(=O)c2c(C)cccc2O)c1 (configuration not stated),T/C,"dose: 0.5 mg/kg/injection, schedule: Q01DX009 (ip), vehicle: other",86 % of control
same,T/C,"dose: 1.0 mg/kg/injection, schedule: Q01DX009 (ip), vehicle: other",153 % of control
same,T/C,"dose: 1.5 mg/kg/injection, schedule: Q01DX009 (ip), vehicle: acid diluted with saline",86 % of control
C/C=C/C=C1/OC(C)=C(C(C)=O)C1=O,T/C,"dose: 12.5 mg/kg/injection, schedule: Q01DX009 (ip), vehicle: saline + Tween-80 + alcohol",117 % of control
same,T/C,"dose: 25.0 mg/kg/injection, schedule: Q01DX009 (ip), vehicle: saline + Tween-80 + alcohol",114 % of control
same,T/C,"dose: 100.0 mg/kg/injection, schedule: Q01DX009 (ip), vehicle: saline + Tween-80 + alcohol",112 % of control
same,T/C,[6],124 % of control
same,T/C,"dose: 200.0 mg/kg/injection, schedule: Q01DX009 (ip), vehicle: saline + Tween-80 + alcohol",123 % of control
CC(C)N(C(=O)C1CCN(Cc2c[nH]c3ccccc23)CC1)C(C)C,T/C,"dose: 12.5 mg/kg/injection, schedule: Q01DX009 (ip), vehicle: saline with Tween-80",108 % of control
same,T/C,"dose: 25.0 mg/kg/injection, schedule: Q01DX009 (ip), vehicle: saline with Tween-80",101 % of control
same,T/C,[7],101 % of control
same,T/C,[6],115 % of control
CN(C)c1ncnc2c1ncn2CC(O)CN (configuration not stated),T/C,"dose: 50.0 mg/kg/injection, schedule: Q01DX005 (ip), vehicle: distilled water + alcohol",100 % of control
same,T/C,"dose: 100.0 mg/kg/injection, schedule: Q01DX005 (ip), vehicle: distilled water + alcohol",103 % of control
same,T/C,"dose: 200.0 mg/kg/injection, schedule: Q01DX005 (ip), vehicle: distilled water + alcohol",96 % of control
CC(=O)NC(C)(C(C)=O)c1ccccc1 (configuration not stated),T/C,[4],102 % of control
same,T/C,[5],107 % of control
same,T/C,[8],110 % of control
CCC1=C(c2cccc(OC(C)=O)c2)C(C)c2ccc(OC(C)=O)cc21 (configuration not stated),T/C,[9],96 % of control
same,T/C,[10],95 % of control
same,T/C,"dose: 240.0 mg/kg/injection, schedule: Q01DX005 (ip), vehicle: Klucel (hydroxypropylcellulose) (HPC)",95 % of control
C[C@]12CCC(=O)C(O)=C1CC[C@H]1[C@@H]3CCC(=O)[C@@]3(C)CC[C@@]12O,T/C,"dose: 12.5 mg/kg/injection, schedule: Q01DX005 (ip), vehicle: Klucel (hydroxypropylcellulose) (HPC)",101 % of control
same,T/C,"dose: 25.0 mg/kg/injection, schedule: Q01DX005 (ip), vehicle: Klucel (hydroxypropylcellulose) (HPC)",109 % of control
same,T/C,[11],104 % of control
same,T/C,[12],104 % of control
same,T/C,[13],96 % of control
CS/C(C#N)=C(\C#N)SC,T/C,[1],115 % of control
same,T/C,[2],113 % of control
N=c1ccc([N+](=O)[O-])cn1O,T/C,[14],98 % of control
same,T/C,[15],96 % of control
O=C1NC(=O)[C@H]2C[C@H]3C(=O)NC(=O)[C@H]3[C@@H]12,T/C,"dose: 25.0 mg/kg/injection, schedule: Q01DX009 (ip), vehicle: Klucel (hydroxypropylcellulose) (HPC)",99 % of control
same,T/C,[16],101 % of control
same,T/C,[17],102 % of control and 107 % of control
same,T/C,[18],101 % of control and 107 % of control
same,T/C,"dose: 400.0 mg/kg/injection, schedule: Q01DX009 (ip), vehicle: Klucel (hydroxypropylcellulose) (HPC)",96 % of control
C=CN1C(=O)N(C=C)C(C)(CC(C)C)C1=O (configuration not stated),T/C,[7],100 % of control
same,T/C,[6],100 % of control
same,T/C,"dose: 200.0 mg/kg/injection, schedule: Q01DX009 (ip), vehicle: saline with Tween-80",112 % of control
COc1c2c(c(OC)c3c1C(=O)C(=O)C=C3O)OCO2,T/C,[9],104 % of control
same,T/C,[10],113 % of control
Cc1c(-c2ccccc2)noc1-n1nnc2ccccc2c1=O,T/C,[19],100 % of control
same,T/C,[20],100 % of control
same,T/C,"dose: 240.0 mg/kg/injection, schedule: Q01DX005 (ip), vehicle: saline with Tween-80",89 % of control
CCOC(=O)C1=C(C(=O)c2ccc(C)cc2)C(c2ccc(Cl)cc2Cl)C(C(=O)c2ccc(C)cc2)=C(C(=O)OCC)N1,T/C,[19],89 % of control
same,T/C,[20],98 % of control
COc1cc(CC(CC(=O)c2ccc3c(c2)OCO3)C(=O)O)cc(OC)c1OC (configuration not stated),T/C,[11],94 % of control
same,T/C,[12],99 % of control
same,T/C,[13],94 % of control
COc1ccc(N2c3ccccc3-c3cc[nH]c(=O)c3[C@H]2O)cc1OC,T/C,"dose: 18.75 mg/kg/injection, schedule: Q01DX001 (ip), vehicle: Klucel (hydroxypropylcellulose) (HPC)",101 % of control
same,T/C,"dose: 18.75 mg/kg/injection, schedule: Q04DX002 (ip), vehicle: Klucel (hydroxypropylcellulose) (HPC)",99 % of control
same,T/C,"dose: 18.75 mg/kg/injection, schedule: Q04DX003 (ip), vehicle: Klucel (hydroxypropylcellulose) (HPC)",112 % of control
same,T/C,"dose: 37.5 mg/kg/injection, schedule: Q01DX001 (ip), vehicle: Klucel (hydroxypropylcellulose) (HPC)",100 % of control
same,T/C,"dose: 37.5 mg/kg/injection, schedule: Q04DX002 (ip), vehicle: Klucel (hydroxypropylcellulose) (HPC)",110 % of control
same,T/C,"dose: 37.5 mg/kg/injection, schedule: Q04DX003 (ip), vehicle: Klucel (hydroxypropylcellulose) (HPC)",96 % of control
same,T/C,"dose: 75.0 mg/kg/injection, schedule: Q01DX001 (ip), vehicle: Klucel (hydroxypropylcellulose) (HPC)",103 % of control
same,T/C,"dose: 75.0 mg/kg/injection, schedule: Q04DX002 (ip), vehicle: Klucel (hydroxypropylcellulose) (HPC)",106 % of control
same,T/C,"dose: 75.0 mg/kg/injection, schedule: Q04DX003 (ip), vehicle: Klucel (hydroxypropylcellulose) (HPC)",96 % of control
same,T/C,"dose: 150.0 mg/kg/injection, schedule: Q01DX001 (ip), vehicle: Klucel (hydroxypropylcellulose) (HPC)",104 % of control
same,T/C,"dose: 150.0 mg/kg/injection, schedule: Q04DX002 (ip), vehicle: Klucel (hydroxypropylcellulose) (HPC)",101 % of control
same,T/C,"dose: 150.0 mg/kg/injection, schedule: Q04DX003 (ip), vehicle: Klucel (hydroxypropylcellulose) (HPC)",106 % of control
CNC(=O)C1CCCCC1Br (configuration not stated),T/C,[11],103 % of control
same,T/C,[12],103 % of control
same,T/C,[13],105 % of control
NCCc1c[nH]c2ccc(O)cc12 (tested in a mixture with another compound),T/C,"dose: 50.0 mg/kg/injection, schedule: Q01DX009 (ip), vehicle: other",113 % of control
same,T/C,[4],102 % of control
same,T/C,"dose: 100.0 mg/kg/injection, schedule: Q01DX009 (ip), vehicle: other",109 % of control
same,T/C,[5],100 % of control
same,T/C,"dose: 200.0 mg/kg/injection, schedule: Q01DX009 (ip), vehicle: other",91 % of control
same,T/C,[8],99 % of control
COc1ccc(C(=S=O)N(C)c2ccccc2)cc1,T/C,[14],100 % of control
same,T/C,[15],100 % of control
same,T/C,"dose: 200.0 mg/kg/injection, schedule: Q01DX009 (ip), vehicle: saline",90 % of control
CNc1nc(C)nc(NC)n1,T/C,[16],91 % of control
same,T/C,[17],93 % of control
same,T/C,[18],90 % of control
OCC1OC(/C(N=Nc2ccccc2)=N\Nc2ccccc2)C(O)C1O (configuration not stated),T/C,"dose: 6.25 mg/kg/injection, schedule: Q01DX005 (ip), vehicle: saline with Tween-80",99 % of control
same,T/C,"dose: 12.5 mg/kg/injection, schedule: Q01DX005 (ip), vehicle: saline with Tween-80",89 % of control
same,T/C,[3],97 % of control
